Key:
PKR(G332S) = PKR(G332S) (Homo sapiens, UniProt P30613, G332S); experiment: Luminescence Biochemical Assay (Kinase Glo Plus), PKR G332S mutant; details: with FBP; for activation at 1.54 µM: 1.54 μM compound, read-out: AC50 LUM KGP FBP % Fold@1.54 μM mean; for AC50: read-out: AC50 LUM KGP FBP AC50 μM gmean (column A); for Emax: read-out: AC50 LUM KGP FBP MAX % FOLD mean
Procedure: (§1) In some embodiments, a PKR Activating Compound can have: (1) an AC50 value of less than 0.1 μM (e.g., compounds with AC50 values of “+++” in Table 13), 0.1-1.0 μM (e.g., compounds with AC50 values of “++” in Table 13), or 1.01-40 μM (e.g., compounds with AC50 values of “+” in Table 13); (2) a MAX % Fold of 75%-250%, 250-500%, or 75%-500%; and/or (3) a % Fold@1.54 μM of 75%-250%, 250-500%, or 75%-500%. In some embodiments, a PKR Activating Compound has (1) an AC50 value of less than 1.0 μM; (2) a MAX % Fold of 75%-500%; and/or (3) a % Fold@1.54 μM of 75%-500%.
(§2) The phosphorylation of Adenosine-5′-diphosphate (ADP) by various mutants of PKR was determined by the Kinase Glo Plus Assay (Promega) in the presence or absence of FBP [D-Fructose-1,6-diphosphate; BOC Sciences, CAS: 81028-91-3] as follows. Unless otherwise indicated, all reagents were purchased from Sigma-Aldrich. All reagents were prepared in buffer containing 50 mM Tris-HCl, 100 mM KCl, 5 mM MgCl2, and 0.01% Triton X100, 0.03% BSA, and 1 mM DTT. Enzyme and PEP [Phospho(enol) pyruvic acid] were added at 2× to all wells of an assay-ready plate containing serial dilutions of test compounds or DMSO vehicle. Final enzyme concentrations for PKR(wt), PKR(R510Q), and PKR(G332S) were 0.8 nM, 0.8 nM, and 10 nM respectively. Final PEP concentration was 100 μM. The Enzyme/PEP mixture was incubated with compounds for 30 minutes at RT before the assay was initiated with the addition of 2×ADP [Adenosine-5′-diphosphate] and KinaseGloPlus. Final concentration of ADP was 100 μM. […] For assays containing FBP, that reagent is added at 30 μM upon reaction initiation. Reactions were allowed to progress for 45 minutes at RT until luminescence was recorded by the BMG PHERAstar FS Multilabel Reader. All compounds were tested in triplicate at concentrations ranging from 42.5 μM to 2.2 nM in 0.83% DMSO.
(§3) Luminescence values were converted to % Fold increase by normalizing to the average of the DMSO control and multiplying by 100. Max, min, slope and AC50 were determined by the standard four parameter fit algorithm of ActivityBase XE Runner. Compounds were evaluated with three parameters—AC50, MAX % Fold, and % Fold@1.54 μM (FIG. 1). The AC50 value for a compound is the concentration (μM) corresponding to the midway between the maximum and minimum values of the four parameter logistic curve fit (i.e., at which the % fold increase along the four parameter logistic curve fit is halfway between MAX % Fold and MIN % Fold (% Fold Midpoint)), MAX % Fold is the highest fold increase observed at any concentration of compound, and % Fold@1.54 μM is the fold increase at a compound concentration of 1.54 μM. The parameter % Fold@1.54 μM was selected to capture elements of both the AC50 and MAX % Fold and to provide a ranking based on both potency and effect. The compound concentration of 1.54 μM was chosen as one that can optimally differentiate the set of compounds based on the range of activities observed.
(§4) As set forth in Table 13 below, AC50 values (columns A, D, G) are defined as follows: ≤0.1 μM (+++); >0.1 μM and ≤1.0 μM (++); >1.0 μM and ≤40 μM (+); >40 μM (0). Max % FOLD values (columns B, E, H) are defined as follows: ≤75% (+); >75% and ≤250% (++); >250% and ≤500% (+++). % Fold@1.54 μM values (columns C, F, J) are defined as follows: ≤75% (+); >75% and ≤250% (++); >250% and ≤50000 (+++).

PKR(R510Q) = PKR(R510Q) (Homo sapiens, UniProt P30613, R510Q); experiment: Luminescence Biochemical Assay (Kinase Glo Plus), PKR R510Q mutant; details: without FBP; for activation at 1.54 µM: 1.54 μM compound, read-out: AC50 LUM KGP woFBP % Fold@1.54 μM mean; for AC50: read-out: AC50 LUM KGP woFBP AC50 μM gmean; for Emax: read-out: AC50 LUM KGP woFBP MAX % FOLD mean
Procedure: as §1, §2, §3, §4

PKR(wt) = PKR(wt) (Homo sapiens, UniProt P30613); experiment: Luminescence Biochemical Assay (Kinase Glo Plus), wild type PKR; details: without FBP; for activation at 1.54 µM: 1.54 μM compound, read-out: AC50 LUM KGP woFBP % Fold@1.54 μM mean; for AC50: read-out: AC50 LUM KGP woFBP AC50 μM gmean; for Emax: read-out: AC50 LUM KGP woFBP MAX % FOLD mean
Chain of PKR(wt) (P30613 whole entry): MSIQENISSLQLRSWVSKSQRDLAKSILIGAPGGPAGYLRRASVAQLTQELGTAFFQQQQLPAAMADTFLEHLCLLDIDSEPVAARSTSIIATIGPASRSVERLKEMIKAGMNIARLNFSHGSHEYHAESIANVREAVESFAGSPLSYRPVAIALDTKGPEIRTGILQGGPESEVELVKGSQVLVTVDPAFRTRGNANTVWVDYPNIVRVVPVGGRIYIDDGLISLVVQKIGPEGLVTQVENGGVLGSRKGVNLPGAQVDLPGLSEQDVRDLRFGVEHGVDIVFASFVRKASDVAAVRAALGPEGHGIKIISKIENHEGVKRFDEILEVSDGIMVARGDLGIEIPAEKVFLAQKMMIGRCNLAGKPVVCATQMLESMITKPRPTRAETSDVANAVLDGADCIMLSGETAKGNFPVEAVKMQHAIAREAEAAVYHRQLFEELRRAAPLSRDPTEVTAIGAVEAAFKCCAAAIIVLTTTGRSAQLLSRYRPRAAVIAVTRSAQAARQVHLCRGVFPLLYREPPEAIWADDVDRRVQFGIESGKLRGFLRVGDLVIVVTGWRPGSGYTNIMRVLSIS

Chain of PKR(R510Q) (P30613 whole entry R510Q): as the sequence (P30613 whole entry) above, with R510Q counted along it
Chain of PKR(G332S) (P30613 whole entry G332S): as the sequence (P30613 whole entry) above, with G332S counted along it

Row | activation at 1.54 µM (PKR(G332S)) [%] | AC50 (PKR(G332S)) [µM] | Emax (PKR(G332S)) [%] | activation at 1.54 µM (PKR(R510Q)) [%] | AC50 (PKR(R510Q)) [µM] | Emax (PKR(R510Q)) [%] | activation at 1.54 µM (PKR(wt)) [%] | AC50 (PKR(wt)) [µM] | Emax (PKR(wt)) [%] | SMILES
1 | 75 to 250 | 1 to 40 | 75 to 250 | 75 to 250 | 1 to 40 | 75 to 250 | – | – | – | Cc1noc(C)c1S(=O)(=O)N1CC2=C(CN(C(=O)[C@H](O)c3ccccc3)C2)C1 [Example 18-44, (2R)-1-{5-[(dimethyl-1,2-oxazol-4-yl)sulfonyl]-1H,2H,3H,4H,5H,6H-pyrrolo[3,4-c]pyrrol-2-yl}-2-hydroxy-2-phenylethan-1-one]
2 | 75 to 250 | 0.1 to 1 | 75 to 250 | 75 to 250 | 1 to 40 | 75 to 250 | – | – | – | Cc1nc(S(=O)(=O)N2CC3=C(CN(C(=O)[C@H](C)c4ccccc4)C3)C2)cn1C [Example 19-3, (2R)-1-{5-[(1,2-dimethyl-1H-imidazol-4-yl)sulfonyl]-1H,2H,3H,4H,5H,6H-pyrrolo[3,4-c]pyrrol-2-yl}-2-phenylpropan-1-one]
3 | 75 to 250 | 0.1 to 1 | 75 to 250 | 75 to 250 | 1 to 40 | 75 to 250 | – | – | – | Cc1nc(S(=O)(=O)N2CC3=C(CN(C(=O)C(C)n4cnc5ccccc54)C3)C2)cn1C (stereo not drawn) [Example 19-9, 2-(1H-Benzo[d]imidazol-1-yl)-1-(5-((1,2-dimethyl-1H-imidazol-4-yl)sulfonyl)-3,4,5,6-tetrahydropyrrolo[3,4-c]pyrrol-2(1H)-yl)propan-1-one]
4 | 75 to 250 | ≤ 0.1 | 75 to 250 | 250 to 50000 | 0.1 to 1 | 250 to 500 | – | – | – | COc1ccc(CNC(=O)N2CC3=C(C2)CN(S(=O)(=O)c2ccc(F)cc2)C3)cc1 [Example 20-3]
5 | 75 to 250 | 0.1 to 1 | 75 to 250 | 75 to 250 | 0.1 to 1 | 75 to 250 | – | – | – | COc1cccc(CNC(=O)N2CC3=C(C2)CN(S(=O)(=O)c2ccc(F)cc2)C3)c1 [Example 20-4, 5-(4-Fluorobenzenesulfonyl)-N-[(3-methoxyphenyl)methyl]-1H,2H,3H,4H,5H,6H-pyrrolo[3,4-c]pyrrole-2-carboxamide]
6 | 75 to 250 | ≤ 0.1 | 75 to 250 | 75 to 250 | 0.1 to 1 | 250 to 500 | – | – | – | COc1ccccc1CNC(=O)N1CC2=C(C1)CN(S(=O)(=O)c1ccc(F)cc1)C2 [Example 20-6, 5-(4-Fluorobenzenesulfonyl)-N-[(2-methoxyphenyl)methyl]-1H,2H,3H,4H,5H,6H-pyrrolo[3,4-c]pyrrole-2-carboxamide]
7 | 75 to 250 | 1 to 40 | 75 to 250 | 75 to 250 | 0.1 to 1 | 75 to 250 | – | – | – | COc1cccc(CNC(=O)N2CC3=C(C2)CN(S(=O)(=O)c2cccc(F)c2)C3)c1 [Example 20-8, 5-(3-Fluorobenzenesulfonyl)-N-[(3-methoxyphenyl)methyl]-1H,2H,3H,4H,5H,6H-pyrrolo[3,4-c]pyrrole-2-carboxamide]
8 | 75 to 250 | 1 to 40 | 75 to 250 | 75 to 250 | ≤ 0.1 | 75 to 250 | – | – | – | COc1ccc(CNC(=O)N2CC3=C(C2)CN(S(=O)(=O)c2cccc4cnccc24)C3)cc1 [Example 20-11, 5-(Isoquinoline-5-sulfonyl)-N-[(4-methoxyphenyl)methyl]-1H,2H,3H,4H,5H,6H-pyrrolo[3,4-c]pyrrole-2-carboxamide]
9 | 75 to 250 | 1 to 40 | 75 to 250 | 75 to 250 | 1 to 40 | 75 to 250 | – | – | – | COc1cccc(CNC(=O)N2CC3=C(C2)CN(S(=O)(=O)c2cccc4cnccc24)C3)c1 [Example 20-12, 5-(Isoquinoline-5-sulfonyl)-N-[(3-methoxyphenyl)methyl]-1H,2H,3H,4H,5H,6H-pyrrolo[3,4-c]pyrrole-2-carboxamide]
10 | 75 to 250 | 1 to 40 | 75 to 250 | 75 to 250 | 0.1 to 1 | 250 to 500 | – | – | – | COc1ccccc1CNC(=O)N1CC2=C(C1)CN(S(=O)(=O)c1cccc3nonc13)C2 [Example 20-19, 5-(2,1,3-Benzoxadiazole-4-sulfonyl)-N-[(2-methoxyphenyl)methyl]-1H,2H,3H,4H,5H,6H-pyrrolo[3,4-c]pyrrole-2-carboxamide]
11 | 75 to 250 | ≤ 0.1 | 75 to 250 | 75 to 250 | 0.1 to 1 | 250 to 500 | – | – | – | O=C(NCc1ccc(F)cc1)N1CC2=C(C1)CN(S(=O)(=O)c1ccc(F)cc1)C2 [Example 20-20, 5-(4-Fluorobenzenesulfonyl)-N-[(4-fluorophenyl)methyl]-1H,2H,3H,4H,5H,6H-pyrrolo[3,4-c]pyrrole-2-carboxamide]
12 | 75 to 250 | 1 to 40 | 75 to 250 | 75 to 250 | 0.1 to 1 | 250 to 500 | – | – | – | O=C(NCc1ccc(F)cc1)N1CC2=C(C1)CN(S(=O)(=O)c1ccc3occc3c1)C2 [Example 20-23, 5-(1-Benzofuran-5-sulfonyl)-N-[(4-fluorophenyl)methyl]-1H,2H,3H,4H,5H,6H-pyrrolo[3,4-c]pyrrole-2-carboxamide]
13 | 75 to 250 | 1 to 40 | 75 to 250 | 75 to 250 | 0.1 to 1 | 250 to 500 | – | – | – | O=C(NCc1ccc(F)cc1)N1CC2=C(C1)CN(S(=O)(=O)c1cccc3nonc13)C2 [Example 20-24, 5-(2,1,3-Benzoxadiazole-4-sulfonyl)-N-[(4-fluorophenyl)methyl]-1H,2H,3H,4H,5H,6H-pyrrolo[3,4-c]pyrrole-2-carboxamide]
14 | – | – | – | 75 to 250 | 1 to 40 | 75 to 250 | 75 to 250 | 1 to 40 | 75 to 250 | CC(C)Oc1ccc(CNC(=O)N2CC3=C(C2)CN(S(=O)(=O)c2ccc4ncsc4c2)C3)cc1 [Example 21-31, 5-(1,3-Benzothiazole-6-sulfonyl)-N-{[4-(propan-2-yloxy)phenyl]methyl}-1H,2H,3H,4H,5H,6H-pyrrolo[3,4-c]pyrrole-2-carboxamide]
15 | – | – | – | 250 to 50000 | 0.1 to 1 | 250 to 500 | 250 to 50000 | 0.1 to 1 | 250 to 500 | Cc1cccc(CNC(=O)N2CC3=C(C2)CN(S(=O)(=O)c2ccc4ncsc4c2)C3)n1 [Example 21-32, 5-(1,3-Benzothiazole-6-sulfonyl)-N-[(6-methylpyridin-2-yl)methyl]-1H,2H,3H,4H,5H,6H-pyrrolo[3,4-c]pyrrole-2-carboxamide]

Row | SMILES | activation at 1.54 µM (PKR(G332S)) [%] | AC50 (PKR(G332S)) [µM] | Emax (PKR(G332S)) [%] | activation at 1.54 µM (PKR(R510Q)) [%] | AC50 (PKR(R510Q)) [µM] | Emax (PKR(R510Q)) [%] | activation at 1.54 µM (PKR(wt)) [%] | AC50 (PKR(wt)) [µM] | Emax (PKR(wt)) [%]
16 | O=C(NCc1cnco1)N1CC2=C(C1)CN(S(=O)(=O)c1ccc(F)cc1)C2 [Example 5-1, 5-(4-Fluorophenylsulfonyl)-N-(oxazol-5-ylmethyl)-3,4,5,6-tetrahydropyrrolo[3,4-c]pyrrole-2(1H)-carboxamide] | 75 to 250 | 0.1 to 1 | 75 to 250 | 75 to 250 | 1 to 40 | 75 to 250 | – | – | –

— patent US12122778B2, “Activating pyruvate kinase R” (Novo Nordisk Health Care AG, priority 2018, dated 2024)
